# Measurements taken from the kinase profiling compilation of Christmann-Franck et al. (2016).
# Experiments:
# Experiment in all cases: radiometric filter-binding kinase assay
# [1] = tested on: AKT2 (human), P31751 [S474D]
# AURKB (human) = AURKB (human) (UniProt Q96GD4)
# CAMKK2 (human) = CAMKK2 (human) (UniProt Q96RR4)
# CHEK1 (human) = CHEK1 (human) (UniProt O14757)
# CHEK2 (human) = CHEK2 (human) (UniProt O96017)
# EPHB4 (human) = EPHB4 (human) (UniProt P54760)
# GCK (human) = GCK (human) (UniProt Q12851)
# IGF1R (human) = IGF1R (human) (UniProt P08069)
# IGF1R (human), sequence (P08069 whole entry, looked up): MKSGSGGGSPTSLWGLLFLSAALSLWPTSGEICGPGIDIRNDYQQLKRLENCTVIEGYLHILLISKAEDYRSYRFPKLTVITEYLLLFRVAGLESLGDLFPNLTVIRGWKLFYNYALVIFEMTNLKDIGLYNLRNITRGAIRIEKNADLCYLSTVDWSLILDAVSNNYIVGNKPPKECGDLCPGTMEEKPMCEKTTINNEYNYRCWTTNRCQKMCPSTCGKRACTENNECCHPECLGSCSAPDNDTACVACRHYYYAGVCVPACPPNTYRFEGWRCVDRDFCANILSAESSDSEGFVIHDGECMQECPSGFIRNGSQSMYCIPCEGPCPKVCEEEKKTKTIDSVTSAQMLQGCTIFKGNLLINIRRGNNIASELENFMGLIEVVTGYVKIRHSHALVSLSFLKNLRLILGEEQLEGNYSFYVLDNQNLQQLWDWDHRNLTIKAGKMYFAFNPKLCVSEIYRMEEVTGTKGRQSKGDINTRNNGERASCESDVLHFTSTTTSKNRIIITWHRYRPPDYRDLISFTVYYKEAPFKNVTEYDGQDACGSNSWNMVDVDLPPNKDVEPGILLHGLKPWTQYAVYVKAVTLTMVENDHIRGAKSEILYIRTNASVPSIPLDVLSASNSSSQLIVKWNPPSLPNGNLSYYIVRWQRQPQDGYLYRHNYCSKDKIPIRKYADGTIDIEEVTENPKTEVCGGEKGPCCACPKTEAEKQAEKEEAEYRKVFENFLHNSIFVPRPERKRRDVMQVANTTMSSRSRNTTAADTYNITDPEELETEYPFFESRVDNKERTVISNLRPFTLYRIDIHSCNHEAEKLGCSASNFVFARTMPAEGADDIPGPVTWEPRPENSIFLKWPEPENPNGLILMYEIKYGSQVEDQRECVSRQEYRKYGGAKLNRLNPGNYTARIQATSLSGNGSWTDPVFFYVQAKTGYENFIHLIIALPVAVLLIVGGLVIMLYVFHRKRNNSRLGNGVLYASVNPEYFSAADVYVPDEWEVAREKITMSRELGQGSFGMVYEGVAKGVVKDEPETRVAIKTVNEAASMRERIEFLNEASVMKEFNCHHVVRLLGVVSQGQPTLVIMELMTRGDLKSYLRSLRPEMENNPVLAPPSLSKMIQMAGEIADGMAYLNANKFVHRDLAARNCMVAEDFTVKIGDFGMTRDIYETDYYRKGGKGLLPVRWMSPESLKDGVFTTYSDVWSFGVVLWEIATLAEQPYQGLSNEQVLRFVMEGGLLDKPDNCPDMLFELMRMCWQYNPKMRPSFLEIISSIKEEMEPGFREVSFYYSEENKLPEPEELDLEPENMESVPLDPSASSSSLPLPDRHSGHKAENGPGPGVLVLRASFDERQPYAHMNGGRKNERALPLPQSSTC
# IKBKB (human) = IKBKB (human) (UniProt O14920)
# MAP2K1 (human) = MAP2K1 (human) (UniProt Q02750)
# MAP3K1 (human) = MAP3K1 (human) (UniProt Q13233)
# MAP3K5 (human) = MAP3K5 (human) (UniProt Q99683)
# MAPK1 (human) = MAPK1 (human) (UniProt P28482)
# MAPK10 (human) = MAPK10 (human) (UniProt P53779)
# MAPK15 (human) = MAPK15 (human) (UniProt Q8TD08)
# MAPK3 (human) = MAPK3 (human) (UniProt P27361)
# MAPK9 (human) = MAPK9 (human) (UniProt P45984)
# MAPKAPK2 (human) = MAPKAPK2 (human) (UniProt P49137)
# MARK2 (human) = MARK2 (human) (UniProt Q7KZI7)
# MINK1 (human) = MINK1 (human) (UniProt Q8N4C8)
# MINK1 (human), sequence (Q8N4C8 whole entry, looked up): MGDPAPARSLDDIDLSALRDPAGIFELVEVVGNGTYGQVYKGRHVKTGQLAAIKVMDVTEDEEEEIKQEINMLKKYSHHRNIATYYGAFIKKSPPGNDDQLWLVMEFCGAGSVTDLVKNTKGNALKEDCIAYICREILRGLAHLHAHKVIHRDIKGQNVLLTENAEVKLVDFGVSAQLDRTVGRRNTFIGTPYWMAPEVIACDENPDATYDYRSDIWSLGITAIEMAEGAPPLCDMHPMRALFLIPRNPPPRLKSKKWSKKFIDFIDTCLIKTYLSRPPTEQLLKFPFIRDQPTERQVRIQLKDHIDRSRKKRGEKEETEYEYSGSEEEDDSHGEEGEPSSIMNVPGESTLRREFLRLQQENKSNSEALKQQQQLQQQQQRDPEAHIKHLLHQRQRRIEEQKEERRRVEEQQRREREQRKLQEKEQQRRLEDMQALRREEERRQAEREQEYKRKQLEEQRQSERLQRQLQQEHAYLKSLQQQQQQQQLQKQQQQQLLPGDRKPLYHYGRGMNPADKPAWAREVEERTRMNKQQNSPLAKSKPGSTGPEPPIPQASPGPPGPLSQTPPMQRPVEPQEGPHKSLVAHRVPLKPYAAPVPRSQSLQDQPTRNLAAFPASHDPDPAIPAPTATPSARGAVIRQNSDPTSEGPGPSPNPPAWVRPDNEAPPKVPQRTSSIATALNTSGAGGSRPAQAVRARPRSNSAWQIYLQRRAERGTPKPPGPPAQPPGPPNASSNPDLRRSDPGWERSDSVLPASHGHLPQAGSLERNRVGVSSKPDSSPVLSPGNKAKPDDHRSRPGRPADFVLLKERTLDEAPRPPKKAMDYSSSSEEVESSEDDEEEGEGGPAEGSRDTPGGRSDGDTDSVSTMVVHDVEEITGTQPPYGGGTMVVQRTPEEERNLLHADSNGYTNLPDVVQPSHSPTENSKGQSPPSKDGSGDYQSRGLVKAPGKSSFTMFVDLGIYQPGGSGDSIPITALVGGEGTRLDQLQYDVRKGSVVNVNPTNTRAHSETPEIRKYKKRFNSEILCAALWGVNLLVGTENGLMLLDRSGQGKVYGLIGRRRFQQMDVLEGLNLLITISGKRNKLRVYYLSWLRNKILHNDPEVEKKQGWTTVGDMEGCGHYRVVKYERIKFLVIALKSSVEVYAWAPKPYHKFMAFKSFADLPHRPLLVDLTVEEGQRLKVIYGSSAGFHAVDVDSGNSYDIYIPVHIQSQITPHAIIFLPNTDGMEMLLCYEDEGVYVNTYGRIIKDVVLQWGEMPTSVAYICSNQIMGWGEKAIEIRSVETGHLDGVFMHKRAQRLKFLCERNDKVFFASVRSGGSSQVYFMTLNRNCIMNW
# MKNK1 (human) = MKNK1 (human) (UniProt Q9BUB5)
# MKNK2 (human) = MKNK2 (human) (UniProt Q9HBH9)
# NEK2 (human) = NEK2 (human) (UniProt P51955)
# NTRK1 (human) = NTRK1 (human) (UniProt P04629)
# PHKG1 (human) = PHKG1 (human) (UniProt Q16816)
# PHKG1 (human), sequence (Q16816 whole entry, looked up): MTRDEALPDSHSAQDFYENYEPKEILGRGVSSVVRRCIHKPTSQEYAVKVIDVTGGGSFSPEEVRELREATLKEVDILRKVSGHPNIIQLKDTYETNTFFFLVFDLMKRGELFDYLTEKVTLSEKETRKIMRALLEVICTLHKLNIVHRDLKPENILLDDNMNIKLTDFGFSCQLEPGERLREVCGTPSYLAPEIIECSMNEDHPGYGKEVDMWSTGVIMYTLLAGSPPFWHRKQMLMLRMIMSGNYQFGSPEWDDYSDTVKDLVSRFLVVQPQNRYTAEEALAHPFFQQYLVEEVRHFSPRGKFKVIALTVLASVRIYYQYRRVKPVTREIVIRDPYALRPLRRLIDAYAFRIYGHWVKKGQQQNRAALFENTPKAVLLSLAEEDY
# PIM2 (human) = PIM2 (human) (UniProt Q9P1W9)
# PKN2 (human) = PKN2 (human) (UniProt Q16513)
# PRKAA1 or PRKAA2 (rat) = details: accession and sequence are those of the human protein
# PRKACA (human) = PRKACA (human) (UniProt P17612)
# PRKCA (human) = PRKCA (human) (UniProt P17252)
# RPS6KA1 KD1 KD2 (human) = RPS6KA1 KD1 KD2 (human) (UniProt Q15418)
# RPS6KA1 KD1 KD2 (human), sequence (Q15418 whole entry, looked up): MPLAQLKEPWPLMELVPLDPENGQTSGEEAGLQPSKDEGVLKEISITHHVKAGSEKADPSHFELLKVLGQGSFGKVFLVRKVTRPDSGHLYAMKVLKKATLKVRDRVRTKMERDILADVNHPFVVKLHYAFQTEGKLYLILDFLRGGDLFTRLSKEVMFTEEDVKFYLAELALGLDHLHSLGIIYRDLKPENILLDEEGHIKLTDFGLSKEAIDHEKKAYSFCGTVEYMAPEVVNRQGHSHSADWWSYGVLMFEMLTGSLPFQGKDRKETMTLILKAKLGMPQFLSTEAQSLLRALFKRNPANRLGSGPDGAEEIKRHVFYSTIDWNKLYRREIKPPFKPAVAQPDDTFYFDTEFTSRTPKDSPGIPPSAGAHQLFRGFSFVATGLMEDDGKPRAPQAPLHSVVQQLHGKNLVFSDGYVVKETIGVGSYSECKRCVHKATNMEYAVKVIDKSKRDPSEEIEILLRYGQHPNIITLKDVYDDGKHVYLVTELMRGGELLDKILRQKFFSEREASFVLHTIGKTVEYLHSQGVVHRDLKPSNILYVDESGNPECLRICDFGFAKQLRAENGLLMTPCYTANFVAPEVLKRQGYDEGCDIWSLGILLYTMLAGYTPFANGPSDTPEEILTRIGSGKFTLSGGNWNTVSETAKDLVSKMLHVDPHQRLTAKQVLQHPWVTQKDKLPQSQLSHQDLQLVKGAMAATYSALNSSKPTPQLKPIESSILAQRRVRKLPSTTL
# SRC (human) = SRC (human) (UniProt P12931)
# [2] = molecular target: STK11 CAB39 STRADA (human) (UniProt Q9Y376+Q7RTN6+Q15831)
# STK3 (human) = STK3 (human) (UniProt Q13188)
# YES1 (human) = YES1 (human) (UniProt P07947)
# EPHB4 (human), sequence (P54760 whole entry, looked up): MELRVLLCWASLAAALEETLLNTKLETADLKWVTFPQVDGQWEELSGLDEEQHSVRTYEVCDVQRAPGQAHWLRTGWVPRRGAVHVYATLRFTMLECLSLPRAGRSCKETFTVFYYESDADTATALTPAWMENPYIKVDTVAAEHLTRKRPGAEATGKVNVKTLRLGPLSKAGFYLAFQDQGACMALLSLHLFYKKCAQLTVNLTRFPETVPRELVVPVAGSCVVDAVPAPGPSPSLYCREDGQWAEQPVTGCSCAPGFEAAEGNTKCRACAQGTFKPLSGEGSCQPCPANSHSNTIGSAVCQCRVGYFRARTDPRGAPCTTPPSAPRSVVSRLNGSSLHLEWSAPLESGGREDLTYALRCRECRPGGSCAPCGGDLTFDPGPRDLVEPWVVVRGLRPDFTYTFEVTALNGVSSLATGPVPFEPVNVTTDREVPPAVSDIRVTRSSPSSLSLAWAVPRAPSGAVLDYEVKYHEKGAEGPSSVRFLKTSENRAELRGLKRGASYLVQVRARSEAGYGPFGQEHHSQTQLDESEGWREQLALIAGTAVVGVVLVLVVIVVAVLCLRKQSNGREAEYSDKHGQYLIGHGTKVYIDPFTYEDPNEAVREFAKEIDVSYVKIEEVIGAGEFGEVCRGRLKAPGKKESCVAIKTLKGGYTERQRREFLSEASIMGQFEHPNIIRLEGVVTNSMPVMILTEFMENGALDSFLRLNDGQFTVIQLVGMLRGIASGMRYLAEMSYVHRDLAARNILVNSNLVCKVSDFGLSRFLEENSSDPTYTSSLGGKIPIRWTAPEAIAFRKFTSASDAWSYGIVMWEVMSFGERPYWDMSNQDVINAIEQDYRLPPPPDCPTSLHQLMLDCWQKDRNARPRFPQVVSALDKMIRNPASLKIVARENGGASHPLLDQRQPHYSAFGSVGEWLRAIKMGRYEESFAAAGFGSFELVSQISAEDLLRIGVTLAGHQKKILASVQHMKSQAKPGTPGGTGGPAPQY
structure (smiles),measurement,setting,value
Cc1ccc(Sc2cnc(Nc3cccc(Br)n3)s2)cc1C(=O)N1CCN(C(=O)CN)CC1,residual activity,[1]; compound 0.1 µM,80%
same,residual activity,[1]; compound 1.0 µM,94%
same,residual activity,[1]; compound 10.0 µM,46%
same,residual activity,AURKB (human); compound 0.1 µM,65%
same,residual activity,AURKB (human); compound 1.0 µM,42%
same,residual activity,AURKB (human); compound 10.0 µM,7%
same,residual activity,CAMKK2 (human); compound 0.1 µM,22%
same,residual activity,CAMKK2 (human); compound 1.0 µM,19%
same,residual activity,CAMKK2 (human); compound 10.0 µM,19%
same,residual activity,CHEK1 (human); compound 0.1 µM,54%
same,residual activity,CHEK1 (human); compound 1.0 µM,53%
same,residual activity,CHEK1 (human); compound 10.0 µM,52%
same,residual activity,CHEK2 (human); compound 0.1 µM,20%
same,residual activity,CHEK2 (human); compound 1.0 µM,18%
same,residual activity,CHEK2 (human); compound 10.0 µM,4%
same,residual activity,EPHB4 (human); compound 0.1 µM,15%
same,residual activity,EPHB4 (human); compound 1.0 µM,13%
same,residual activity,EPHB4 (human); compound 10.0 µM,4%
same,residual activity,GCK (human); compound 0.1 µM,101%
same,residual activity,GCK (human); compound 1.0 µM,93%
same,residual activity,GCK (human); compound 10.0 µM,33%
same,residual activity,IGF1R (human); compound 0.1 µM,2%
same,residual activity,IGF1R (human); compound 1.0 µM,2%
same,residual activity,IGF1R (human); compound 10.0 µM,2%
same,residual activity,IKBKB (human); compound 0.1 µM,107%
same,residual activity,IKBKB (human); compound 1.0 µM,92%
same,residual activity,IKBKB (human); compound 10.0 µM,84%
same,residual activity,MAP2K1 (human); compound 0.1 µM,96%
same,residual activity,MAP2K1 (human); compound 1.0 µM,85%
same,residual activity,MAP2K1 (human); compound 10.0 µM,40%
same,residual activity,MAP3K1 (human); compound 0.1 µM,46%
same,residual activity,MAP3K1 (human); compound 1.0 µM,35%
same,residual activity,MAP3K1 (human); compound 10.0 µM,5%
same,residual activity,MAP3K5 (human); compound 0.1 µM,106%
same,residual activity,MAP3K5 (human); compound 1.0 µM,101%
same,residual activity,MAPK1 (human); compound 0.1 µM,99%
same,residual activity,MAPK1 (human); compound 1.0 µM,103%
same,residual activity,MAPK1 (human); compound 10.0 µM,85%
same,residual activity,MAPK10 (human); compound 0.1 µM,94%
same,residual activity,MAPK10 (human); compound 1.0 µM,107%
same,residual activity,MAPK10 (human); compound 10.0 µM,54%
same,residual activity,MAPK15 (human); compound 0.1 µM,1%
same,residual activity,MAPK15 (human); compound 1.0 µM,1%
same,residual activity,MAPK15 (human); compound 10.0 µM,1%
same,residual activity,MAPK3 (human); compound 0.1 µM,103%
same,residual activity,MAPK3 (human); compound 1.0 µM,78%
same,residual activity,MAPK3 (human); compound 10.0 µM,99%
same,residual activity,MAPK9 (human); compound 0.1 µM,98%
same,residual activity,MAPK9 (human); compound 1.0 µM,94%
same,residual activity,MAPK9 (human); compound 10.0 µM,54%
same,residual activity,MAPKAPK2 (human); compound 0.1 µM,98%
same,residual activity,MAPKAPK2 (human); compound 1.0 µM,86%
same,residual activity,MAPKAPK2 (human); compound 10.0 µM,80%
same,residual activity,MARK2 (human); compound 0.1 µM,81%
same,residual activity,MARK2 (human); compound 1.0 µM,87%
same,residual activity,MARK2 (human); compound 10.0 µM,44%
same,residual activity,MINK1 (human); compound 0.1 µM,69%
same,residual activity,MINK1 (human); compound 1.0 µM,64%
same,residual activity,MINK1 (human); compound 10.0 µM,8%
same,residual activity,MKNK1 (human); compound 0.1 µM,97%
same,residual activity,MKNK1 (human); compound 1.0 µM,103%
same,residual activity,MKNK1 (human); compound 10.0 µM,77%
same,residual activity,MKNK2 (human); compound 0.1 µM,120%
same,residual activity,MKNK2 (human); compound 1.0 µM,92%
same,residual activity,MKNK2 (human); compound 10.0 µM,73%
same,residual activity,NEK2 (human); compound 0.1 µM,108%
same,residual activity,NEK2 (human); compound 1.0 µM,87%
same,residual activity,NEK2 (human); compound 10.0 µM,71%
same,residual activity,NTRK1 (human); compound 0.1 µM,14%
same,residual activity,NTRK1 (human); compound 1.0 µM,19%
same,residual activity,NTRK1 (human); compound 10.0 µM,4%
same,residual activity,PHKG1 (human); compound 0.1 µM,43%
same,residual activity,PHKG1 (human); compound 1.0 µM,15%
same,residual activity,PHKG1 (human); compound 10.0 µM,2%
same,residual activity,PIM2 (human); compound 0.1 µM,94%
same,residual activity,PIM2 (human); compound 1.0 µM,92%
same,residual activity,PIM2 (human); compound 10.0 µM,77%
same,residual activity,PKN2 (human); compound 0.1 µM,80%
same,residual activity,PKN2 (human); compound 1.0 µM,78%
same,residual activity,PKN2 (human); compound 10.0 µM,32%
same,residual activity,PRKAA1 or PRKAA2 (rat); compound 0.1 µM,63%
same,residual activity,PRKAA1 or PRKAA2 (rat); compound 1.0 µM,47%
same,residual activity,PRKAA1 or PRKAA2 (rat); compound 10.0 µM,3%
same,residual activity,PRKACA (human); compound 0.1 µM,98%
same,residual activity,PRKACA (human); compound 1.0 µM,88%
same,residual activity,PRKACA (human); compound 10.0 µM,54%
same,residual activity,PRKCA (human); compound 0.1 µM,41%
same,residual activity,PRKCA (human); compound 1.0 µM,45%
same,residual activity,PRKCA (human); compound 10.0 µM,11%
same,residual activity,RPS6KA1 KD1 KD2 (human); compound 0.1 µM,31%
same,residual activity,RPS6KA1 KD1 KD2 (human); compound 1.0 µM,29%
same,residual activity,RPS6KA1 KD1 KD2 (human); compound 10.0 µM,6%
same,residual activity,SRC (human); compound 0.1 µM,22%
same,residual activity,SRC (human); compound 1.0 µM,20%
same,residual activity,SRC (human); compound 10.0 µM,2%
same,residual activity,[2]; compound 0.1 µM,64%
same,residual activity,[2]; compound 1.0 µM,62%
same,residual activity,[2]; compound 10.0 µM,8%
same,residual activity,STK3 (human); compound 0.1 µM,16%
same,residual activity,STK3 (human); compound 1.0 µM,19%
same,residual activity,STK3 (human); compound 10.0 µM,3%
same,residual activity,YES1 (human); compound 0.1 µM,11%
same,residual activity,YES1 (human); compound 1.0 µM,11%
same,residual activity,YES1 (human); compound 10.0 µM,6%
Cc1cc(N=Nc2cc(S(=O)(=O)O)c(C)cc2C)c(N)cc1O,residual activity,[1]; compound 100.0 µM,37%
same,residual activity,AURKB (human); compound 100.0 µM,93%
same,residual activity,CAMKK2 (human); compound 100.0 µM,99%
same,residual activity,CHEK1 (human); compound 100.0 µM,196%
same,residual activity,CHEK2 (human); compound 100.0 µM,100%
same,residual activity,EPHB4 (human); compound 100.0 µM,123%
same,residual activity,GCK (human); compound 100.0 µM,80%
same,residual activity,IGF1R (human); compound 100.0 µM,109%
same,residual activity,IKBKB (human); compound 100.0 µM,97%
same,residual activity,MAP2K1 (human); compound 100.0 µM,103%
same,residual activity,MAP3K1 (human); compound 100.0 µM,88%
same,residual activity,MAP3K5 (human); compound 100.0 µM,151%
same,residual activity,MAPK1 (human); compound 100.0 µM,134%
same,residual activity,MAPK10 (human); compound 100.0 µM,100%
same,residual activity,MAPK15 (human); compound 100.0 µM,65%
same,residual activity,MAPK3 (human); compound 100.0 µM,98%
same,residual activity,MAPK9 (human); compound 100.0 µM,112%
same,residual activity,MAPKAPK2 (human); compound 100.0 µM,107%
same,residual activity,MARK2 (human); compound 100.0 µM,98%
same,residual activity,MINK1 (human); compound 100.0 µM,62%
same,residual activity,MKNK1 (human); compound 100.0 µM,99%
same,residual activity,MKNK2 (human); compound 100.0 µM,100%
same,residual activity,NEK2 (human); compound 100.0 µM,118%
same,residual activity,NTRK1 (human); compound 100.0 µM,65%
same,residual activity,PHKG1 (human); compound 100.0 µM,86%
same,residual activity,PIM2 (human); compound 100.0 µM,58%
same,residual activity,PKN2 (human); compound 100.0 µM,126%
same,residual activity,PRKAA1 or PRKAA2 (rat); compound 100.0 µM,71%
same,residual activity,PRKACA (human); compound 100.0 µM,90%
same,residual activity,PRKCA (human); compound 100.0 µM,81%
same,residual activity,RPS6KA1 KD1 KD2 (human); compound 100.0 µM,99%
same,residual activity,SRC (human); compound 100.0 µM,40%
same,residual activity,[2]; compound 100.0 µM,126%
same,residual activity,STK3 (human); compound 100.0 µM,81%
same,residual activity,YES1 (human); compound 100.0 µM,52%
